Laboratory results from article PMC6934184, “Selective DNA-PKcs inhibition extends the therapeutic index of localized radiotherapy and chemotherapy” (The Journal of Clinical Investigation, 2019).

Biological target: T1, SGK (SGK1) (Homo sapiens, UniProt O00141)
T1 construct: purchased Thermo Fisher Scientific (Life Technologies) SelectScreen
Experiment: SelectScreen Z'LYTE
Format: biochemical
Procedure, shortened: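 NU5455 was profiled across the SelectScreen Broad panel of kinase activity and binding assays. Z'LYTE reactions such as CSF1R ran at apparent Km ATP, while the Adapta CAMK1 assay used ATP listed as 10. Values are given as percent.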

T1 sequence (O00141 whole entry): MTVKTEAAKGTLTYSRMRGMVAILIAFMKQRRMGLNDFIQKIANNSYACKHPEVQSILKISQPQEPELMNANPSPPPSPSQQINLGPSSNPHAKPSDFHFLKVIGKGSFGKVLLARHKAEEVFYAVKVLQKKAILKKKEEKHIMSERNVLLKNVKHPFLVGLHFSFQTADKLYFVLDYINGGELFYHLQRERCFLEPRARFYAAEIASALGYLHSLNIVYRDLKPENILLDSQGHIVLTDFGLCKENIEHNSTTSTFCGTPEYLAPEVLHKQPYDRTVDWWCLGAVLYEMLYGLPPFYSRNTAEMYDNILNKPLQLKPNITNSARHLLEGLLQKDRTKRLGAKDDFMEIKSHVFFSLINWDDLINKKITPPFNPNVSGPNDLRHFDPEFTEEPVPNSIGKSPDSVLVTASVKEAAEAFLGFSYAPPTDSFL

With `CN(C(=O)CN1CCOCC1)c1ccc2sc3c(-c4cccc5c(=O)cc(N6CC7CCC(C6)O7)oc45)cccc3c2c1` [NU5455] the inhibition at 1 µM was 8.5%.
